Each block holds one molecule with its values, some of them ahead of it. The source made the active and inactive calls.
Legend:
Caspase-3 = target: T1, Caspase-3 (Homo sapiens, UniProt P42574); type: functional;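 also: Dose-response selectivity test against caspase-3 for candidate inhibitors of sentrin-specific proteases (SENPs)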
T1 sequence (P42574 whole entry): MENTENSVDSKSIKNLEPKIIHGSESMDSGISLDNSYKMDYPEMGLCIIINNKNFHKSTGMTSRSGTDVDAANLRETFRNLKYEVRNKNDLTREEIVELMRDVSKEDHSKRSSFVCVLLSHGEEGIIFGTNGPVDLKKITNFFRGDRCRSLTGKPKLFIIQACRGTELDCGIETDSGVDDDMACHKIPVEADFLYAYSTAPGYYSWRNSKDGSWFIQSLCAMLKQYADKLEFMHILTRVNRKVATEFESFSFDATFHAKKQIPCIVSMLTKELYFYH

[1] = target: Mitogen-activated protein kinase kinase kinase kinase 5 (Homo sapiens, UniProt Q9Y4K4); type: functional;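 also: measured as one member of a kinome-spanning kinase panel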
Chain of Mitogen-activated protein kinase kinase kinase kinase 5 (Q9Y4K4 whole entry): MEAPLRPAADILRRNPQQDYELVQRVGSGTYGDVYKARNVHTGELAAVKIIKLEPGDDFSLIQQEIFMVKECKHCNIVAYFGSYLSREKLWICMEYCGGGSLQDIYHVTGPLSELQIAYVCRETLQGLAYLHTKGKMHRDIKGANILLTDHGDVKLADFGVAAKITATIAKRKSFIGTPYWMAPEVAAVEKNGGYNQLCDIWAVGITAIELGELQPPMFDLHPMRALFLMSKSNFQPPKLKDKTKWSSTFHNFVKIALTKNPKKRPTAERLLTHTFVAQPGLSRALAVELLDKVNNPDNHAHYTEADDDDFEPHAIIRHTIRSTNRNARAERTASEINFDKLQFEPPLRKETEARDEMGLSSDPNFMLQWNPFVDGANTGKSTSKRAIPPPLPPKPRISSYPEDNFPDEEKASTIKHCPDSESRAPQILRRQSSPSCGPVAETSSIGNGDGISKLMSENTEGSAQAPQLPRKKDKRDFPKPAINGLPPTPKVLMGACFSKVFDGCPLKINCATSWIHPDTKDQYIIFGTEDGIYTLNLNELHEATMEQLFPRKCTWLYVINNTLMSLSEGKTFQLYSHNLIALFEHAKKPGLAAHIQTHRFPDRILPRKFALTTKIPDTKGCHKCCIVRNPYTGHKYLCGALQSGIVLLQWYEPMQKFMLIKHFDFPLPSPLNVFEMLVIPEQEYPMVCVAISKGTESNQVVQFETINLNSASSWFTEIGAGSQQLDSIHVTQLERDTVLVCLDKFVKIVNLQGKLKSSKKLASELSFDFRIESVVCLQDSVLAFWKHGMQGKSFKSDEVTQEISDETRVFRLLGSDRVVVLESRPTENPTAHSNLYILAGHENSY

[2] = target: Serine/threonine-protein kinase PLK4 (Homo sapiens, UniProt O00444); type: functional;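 also: PLK4 measured as one member of a kinome-wide kinase profiling panel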
SRSF protein kinase 1 = SRSF protein kinase 1 (Homo sapiens, UniProt Q96SB4); type: functional;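 also: measured as one member of a kinome-wide kinase profiling panel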
[3] = target: Tyrosine-protein kinase Lyn (Homo sapiens, UniProt P07948); type: functional;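 also: lyn as one member of a kinase panel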
Chain of Tyrosine-protein kinase Lyn (P07948 whole entry): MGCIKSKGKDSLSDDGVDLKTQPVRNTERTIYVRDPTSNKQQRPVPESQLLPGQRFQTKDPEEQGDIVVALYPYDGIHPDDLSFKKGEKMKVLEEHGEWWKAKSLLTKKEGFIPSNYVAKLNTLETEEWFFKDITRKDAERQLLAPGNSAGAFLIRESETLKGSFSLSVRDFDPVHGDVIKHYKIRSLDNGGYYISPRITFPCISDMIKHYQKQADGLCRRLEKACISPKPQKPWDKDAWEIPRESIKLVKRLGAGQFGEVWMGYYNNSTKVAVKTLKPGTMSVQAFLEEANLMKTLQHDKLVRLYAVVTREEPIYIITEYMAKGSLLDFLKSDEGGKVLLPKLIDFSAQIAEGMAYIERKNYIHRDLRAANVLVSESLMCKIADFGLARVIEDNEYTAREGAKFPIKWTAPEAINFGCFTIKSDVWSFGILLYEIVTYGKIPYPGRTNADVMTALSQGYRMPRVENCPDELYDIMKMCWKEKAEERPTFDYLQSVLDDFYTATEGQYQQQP

[4] = target: Cyclin-dependent kinase 1 (Homo sapiens, UniProt P06493); type: functional;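 also: Kinome-wide panel profiling, with the target listed as panel member CDC2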
Chain of Cyclin-dependent kinase 1 (P06493 whole entry): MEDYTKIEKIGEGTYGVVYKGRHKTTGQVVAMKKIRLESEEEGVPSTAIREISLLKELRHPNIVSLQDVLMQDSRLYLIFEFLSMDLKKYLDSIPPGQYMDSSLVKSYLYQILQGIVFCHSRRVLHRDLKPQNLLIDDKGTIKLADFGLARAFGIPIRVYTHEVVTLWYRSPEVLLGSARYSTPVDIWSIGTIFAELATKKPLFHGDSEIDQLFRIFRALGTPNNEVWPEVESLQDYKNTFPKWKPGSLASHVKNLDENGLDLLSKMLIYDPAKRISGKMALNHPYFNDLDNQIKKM

[5] = target: Mitogen-activated protein kinase kinase kinase kinase 4 (Homo sapiens, UniProt O95819); type: functional
Chain of Mitogen-activated protein kinase kinase kinase kinase 4 (O95819 whole entry): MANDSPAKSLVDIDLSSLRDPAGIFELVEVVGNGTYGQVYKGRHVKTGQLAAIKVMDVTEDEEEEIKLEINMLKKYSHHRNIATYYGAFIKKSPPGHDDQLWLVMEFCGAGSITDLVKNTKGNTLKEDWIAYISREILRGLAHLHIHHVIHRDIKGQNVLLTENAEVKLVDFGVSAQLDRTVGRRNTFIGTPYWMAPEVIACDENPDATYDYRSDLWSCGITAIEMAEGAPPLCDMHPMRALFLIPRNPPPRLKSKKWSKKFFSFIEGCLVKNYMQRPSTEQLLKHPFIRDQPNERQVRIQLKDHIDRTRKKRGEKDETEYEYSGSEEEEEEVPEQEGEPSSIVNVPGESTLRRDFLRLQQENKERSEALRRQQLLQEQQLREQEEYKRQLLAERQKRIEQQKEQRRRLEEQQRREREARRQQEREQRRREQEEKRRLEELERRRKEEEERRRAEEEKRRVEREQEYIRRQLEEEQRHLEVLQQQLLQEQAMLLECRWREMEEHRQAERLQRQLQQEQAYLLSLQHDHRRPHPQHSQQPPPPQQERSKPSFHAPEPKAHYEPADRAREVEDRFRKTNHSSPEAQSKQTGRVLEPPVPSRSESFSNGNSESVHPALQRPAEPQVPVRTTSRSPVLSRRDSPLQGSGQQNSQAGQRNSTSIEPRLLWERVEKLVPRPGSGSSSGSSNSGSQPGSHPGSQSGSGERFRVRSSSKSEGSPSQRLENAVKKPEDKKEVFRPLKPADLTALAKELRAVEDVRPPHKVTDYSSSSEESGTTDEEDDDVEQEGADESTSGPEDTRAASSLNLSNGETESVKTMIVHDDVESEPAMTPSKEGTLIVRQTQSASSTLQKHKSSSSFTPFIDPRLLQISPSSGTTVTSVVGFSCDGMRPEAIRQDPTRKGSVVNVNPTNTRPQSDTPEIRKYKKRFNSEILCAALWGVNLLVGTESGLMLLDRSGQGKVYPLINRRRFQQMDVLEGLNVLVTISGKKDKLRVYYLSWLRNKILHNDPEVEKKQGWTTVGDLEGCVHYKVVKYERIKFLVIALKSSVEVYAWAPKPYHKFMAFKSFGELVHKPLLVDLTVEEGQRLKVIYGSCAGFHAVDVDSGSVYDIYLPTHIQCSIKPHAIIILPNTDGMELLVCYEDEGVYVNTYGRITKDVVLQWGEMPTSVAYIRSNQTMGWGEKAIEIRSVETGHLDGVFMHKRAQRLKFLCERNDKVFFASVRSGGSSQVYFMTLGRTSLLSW

[6] = target: Maternal embryonic leucine zipper kinase (Homo sapiens, UniProt Q14680); type: functional
Chain of Maternal embryonic leucine zipper kinase (Q14680 whole entry): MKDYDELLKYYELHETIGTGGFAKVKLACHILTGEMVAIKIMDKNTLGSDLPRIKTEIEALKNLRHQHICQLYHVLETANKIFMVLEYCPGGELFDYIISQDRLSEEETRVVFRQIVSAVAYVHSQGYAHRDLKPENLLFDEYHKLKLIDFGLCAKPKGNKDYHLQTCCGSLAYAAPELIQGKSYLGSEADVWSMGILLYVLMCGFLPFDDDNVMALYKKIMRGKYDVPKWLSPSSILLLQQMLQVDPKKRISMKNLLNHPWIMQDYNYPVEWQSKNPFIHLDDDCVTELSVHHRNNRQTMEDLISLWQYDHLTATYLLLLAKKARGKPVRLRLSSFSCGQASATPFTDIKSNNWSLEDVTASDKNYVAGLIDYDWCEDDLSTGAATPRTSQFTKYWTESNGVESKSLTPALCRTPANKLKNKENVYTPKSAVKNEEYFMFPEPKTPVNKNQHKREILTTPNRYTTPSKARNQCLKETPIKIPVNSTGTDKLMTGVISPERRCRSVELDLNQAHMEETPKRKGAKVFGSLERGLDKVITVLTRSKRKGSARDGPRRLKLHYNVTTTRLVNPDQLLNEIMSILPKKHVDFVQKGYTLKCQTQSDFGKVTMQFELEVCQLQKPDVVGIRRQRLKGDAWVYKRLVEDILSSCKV

[7] = target: Receptor tyrosine-protein kinase erbB-2 (Homo sapiens, UniProt P04626); assay: Navigating the Kinome. Panel member name: ERBB2; type: functional
[8] = target: Phosphorylase b kinase gamma catalytic chain, liver/testis isoform (Homo sapiens, UniProt P15735); type: functional;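 also: PHKG2 measured as one member of a kinome-wide kinase panel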
Chain of Phosphorylase b kinase gamma catalytic chain, liver/testis isoform (P15735 whole entry, canonical isoform): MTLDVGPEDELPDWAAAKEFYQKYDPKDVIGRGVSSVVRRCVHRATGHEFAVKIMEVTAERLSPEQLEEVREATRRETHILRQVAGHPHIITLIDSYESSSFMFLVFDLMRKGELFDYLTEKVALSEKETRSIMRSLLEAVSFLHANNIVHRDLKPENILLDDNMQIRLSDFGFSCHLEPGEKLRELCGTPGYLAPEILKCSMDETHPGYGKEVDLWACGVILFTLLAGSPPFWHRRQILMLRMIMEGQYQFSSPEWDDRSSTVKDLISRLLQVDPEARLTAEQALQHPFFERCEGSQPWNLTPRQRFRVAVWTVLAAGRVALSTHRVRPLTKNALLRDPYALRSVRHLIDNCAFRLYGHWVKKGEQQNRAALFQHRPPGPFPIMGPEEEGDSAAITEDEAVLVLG

[9] = target: Serine/threonine-protein kinase Nek2 (Homo sapiens, UniProt P51955); type: functional
Chain of Serine/threonine-protein kinase Nek2 (P51955 whole entry): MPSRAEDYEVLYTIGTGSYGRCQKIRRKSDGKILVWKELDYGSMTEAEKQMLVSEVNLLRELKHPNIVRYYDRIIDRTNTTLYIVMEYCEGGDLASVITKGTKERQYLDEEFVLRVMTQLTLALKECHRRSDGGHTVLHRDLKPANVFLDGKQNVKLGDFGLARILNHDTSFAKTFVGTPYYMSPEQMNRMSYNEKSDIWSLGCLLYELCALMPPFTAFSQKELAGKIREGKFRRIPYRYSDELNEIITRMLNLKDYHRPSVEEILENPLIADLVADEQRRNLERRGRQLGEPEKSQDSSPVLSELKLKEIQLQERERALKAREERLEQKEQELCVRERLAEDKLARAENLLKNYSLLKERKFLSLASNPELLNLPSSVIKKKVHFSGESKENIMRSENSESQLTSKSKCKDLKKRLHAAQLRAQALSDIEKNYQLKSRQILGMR

[10] = target: Homeodomain-interacting protein kinase 2 (Homo sapiens, UniProt Q9H2X6); type: functional;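 also: measured within a kinome-wide kinase profiling panel, HIPK2 being one panel member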
[11] = viability of PTEN-deleted HCT116 cells – cell-based, HCT116 PTEN knockout, dose response (AID 1047); type: functional;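 also: HCT116 colon tumor cells with PTEN knocked out; cells exposed to compound for 60 hours before readout; potency for loss of cell viability measured by luminescence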
[12] = target: DNA dC->dU-editing enzyme APOBEC-3G (Homo sapiens, UniProt Q9HC16); assay: Dose Response confirmation of small molecule APOBEC3G DNA Deaminase Inhibitors via a fluorescence-based single-stranded DNA deaminase assay. [Related pubchem assays (depositor defined):AID493012, AID493028]; type: functional
Chain of DNA dC->dU-editing enzyme APOBEC-3G (Q9HC16 whole entry): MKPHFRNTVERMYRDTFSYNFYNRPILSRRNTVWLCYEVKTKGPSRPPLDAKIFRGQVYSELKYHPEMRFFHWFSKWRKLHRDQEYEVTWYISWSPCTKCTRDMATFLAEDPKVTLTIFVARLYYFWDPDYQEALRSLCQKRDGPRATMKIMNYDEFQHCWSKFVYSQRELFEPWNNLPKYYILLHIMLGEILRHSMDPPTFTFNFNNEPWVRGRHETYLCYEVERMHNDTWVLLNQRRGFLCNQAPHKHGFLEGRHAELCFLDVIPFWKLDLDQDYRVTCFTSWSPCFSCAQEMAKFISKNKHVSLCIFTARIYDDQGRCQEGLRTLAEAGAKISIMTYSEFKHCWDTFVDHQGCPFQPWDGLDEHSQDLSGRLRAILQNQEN

Hexokinase = target: T2, Hexokinase (Trypanosoma brucei, UniProt Q38C41); assay: Confirmation assay for inhibitors of Trypanosoma brucei hexokinase 1-Analogue-first series. [Related pubchem assays (depositor defined):AID1430, AID1632, AID2516, AID2560, AID2579, AID2600, AID449725, AID492951]; type: functional
T2 sequence (Q38C41 whole entry): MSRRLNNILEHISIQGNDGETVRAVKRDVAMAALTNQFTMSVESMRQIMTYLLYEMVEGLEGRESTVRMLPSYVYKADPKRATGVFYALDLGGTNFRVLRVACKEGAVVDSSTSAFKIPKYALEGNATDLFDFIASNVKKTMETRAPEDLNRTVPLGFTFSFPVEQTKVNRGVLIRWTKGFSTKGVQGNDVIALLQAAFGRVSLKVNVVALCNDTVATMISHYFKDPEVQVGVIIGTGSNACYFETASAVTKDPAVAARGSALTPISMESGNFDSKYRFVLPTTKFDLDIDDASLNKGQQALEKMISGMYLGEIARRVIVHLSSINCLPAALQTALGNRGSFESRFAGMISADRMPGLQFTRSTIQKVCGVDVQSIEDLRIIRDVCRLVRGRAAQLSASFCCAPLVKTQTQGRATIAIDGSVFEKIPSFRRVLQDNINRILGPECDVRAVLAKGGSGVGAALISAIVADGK

[13] = target: DNA dC->dU-editing enzyme APOBEC-3A (Homo sapiens, UniProt P31941); assay: A3A deaminase inhibition for selectivity – biochemical, dose response (AID 504722); type: functional
Chain of DNA dC->dU-editing enzyme APOBEC-3A (P31941 whole entry): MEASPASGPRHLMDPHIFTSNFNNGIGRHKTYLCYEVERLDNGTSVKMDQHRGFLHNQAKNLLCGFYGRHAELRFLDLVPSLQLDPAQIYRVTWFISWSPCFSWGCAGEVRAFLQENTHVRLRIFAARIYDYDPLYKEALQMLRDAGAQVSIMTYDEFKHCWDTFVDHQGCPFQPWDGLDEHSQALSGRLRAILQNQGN

HEK293 = assay: SAR Analysis of small molecule inhibitors of T-cell specific antigen receptor-induced NF-kB activation in a HEK-293T cell line using a luminescence assay. [Related pubchem assays (depositor defined):AID435003, AID435012, AID489026]; type: functional, cell-based; details: Homo sapiens
Aminopeptidase N = target: T3, Aminopeptidase N (Plasmodium falciparum FcB1/Columbia, UniProt O96935); assay: malaria alanyl aminopeptidase activity blockers – biochemical, fluorogenic H-Leu-NHMec substrate, 1536-well (AID 1445); design: species or system Plasmodium falciparum 3D7, 3D7
T3 sequence (O96935 whole entry): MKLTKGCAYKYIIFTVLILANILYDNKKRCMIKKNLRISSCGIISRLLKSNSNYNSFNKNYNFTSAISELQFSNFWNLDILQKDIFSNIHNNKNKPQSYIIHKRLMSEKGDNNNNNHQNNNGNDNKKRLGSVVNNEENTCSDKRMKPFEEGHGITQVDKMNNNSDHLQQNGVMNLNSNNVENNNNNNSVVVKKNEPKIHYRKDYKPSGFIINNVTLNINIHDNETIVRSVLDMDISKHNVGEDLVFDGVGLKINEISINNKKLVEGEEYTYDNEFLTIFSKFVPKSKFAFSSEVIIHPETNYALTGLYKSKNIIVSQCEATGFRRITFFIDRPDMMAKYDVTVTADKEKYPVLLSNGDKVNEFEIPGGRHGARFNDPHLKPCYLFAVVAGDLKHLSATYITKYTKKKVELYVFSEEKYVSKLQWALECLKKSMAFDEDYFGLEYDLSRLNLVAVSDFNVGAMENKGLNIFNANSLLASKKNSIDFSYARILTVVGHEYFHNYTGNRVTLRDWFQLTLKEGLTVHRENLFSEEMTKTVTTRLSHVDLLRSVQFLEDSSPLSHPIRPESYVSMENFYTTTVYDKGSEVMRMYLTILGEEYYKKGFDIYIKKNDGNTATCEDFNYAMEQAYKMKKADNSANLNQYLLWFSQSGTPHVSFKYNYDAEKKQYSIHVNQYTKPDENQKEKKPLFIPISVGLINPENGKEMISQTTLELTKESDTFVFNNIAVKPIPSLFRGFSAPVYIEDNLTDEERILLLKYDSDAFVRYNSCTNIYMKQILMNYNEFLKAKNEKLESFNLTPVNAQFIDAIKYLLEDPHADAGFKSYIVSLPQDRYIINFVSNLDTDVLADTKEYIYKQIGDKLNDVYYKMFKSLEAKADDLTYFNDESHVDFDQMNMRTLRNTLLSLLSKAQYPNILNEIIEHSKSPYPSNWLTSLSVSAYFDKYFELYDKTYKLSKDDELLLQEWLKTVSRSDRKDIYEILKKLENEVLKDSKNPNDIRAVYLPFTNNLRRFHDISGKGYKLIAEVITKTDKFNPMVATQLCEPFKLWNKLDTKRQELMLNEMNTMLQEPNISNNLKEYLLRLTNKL

SMILES: CC(=O)N(/N=C1\Sc2ccccc2C1=O)c1ccccc1C
IC50 (Caspase-3): 42.2 µM (active)

Ki [1]: 0.501 µM (active)
Ki [2]: 0.251 µM (active)
Ki (SRSF protein kinase 1): 3.16 µM (active)
Ki [3]: 0.126 µM (active)
Ki [4]: > 7.94 µM (inactive)
Ki [5]: 2.51 µM (active)
Ki [6]: 0.794 µM (active)
Ki [7]: > 1.58 µM (inactive)
Ki [8]: > 5.01 µM (inactive)
Ki [9]: > 10 µM (inactive)
Ki [10]: > 3.16 µM (inactive)
SMILES: Cc1cccc(NC(=O)Nc2ccc3c(c2)CCc2sc4ncnc(N)c4c2-3)c1

SMILES: Cc1ccc(-n2sc3ccccc3c2=O)cc1
EC50 [11]: 31.1 µM (active)
IC50 [12]: 18.2 µM (active)
IC50 (Hexokinase): 2.64 µM (active)
IC50 [13]: > 100 µM (inactive)

SMILES: CCCC(=O)NC(c1ccc(Cl)cc1)c1ccc2cccnc2c1O (stereo not drawn)
IC50 (HEK293): 3.72 µM (active)

SMILES: N/C(=N\N=C/c1ccc(-c2ccc(O)c(C(=O)O)c2)o1)N[N+](=O)[O-]
IC50 (Aminopeptidase N): 10.2 µM (active)
